Test results as given in patent publication EP2785358B1, “INSULIN-MIMETICS AS THERAPEUTIC ADJUNCTS FOR BONE REGENERATION” (priority 2011, dated 2013).
“And” between values parts separate entries of the source, which are not always exact repeats. Identical values can stand only once. Like-named read-outs stand apart in the source and are kept apart here. Marks after values point to notes of the source that are not given here.

What was measured:
femur fractures [1] = tested on: femur fractures; design: Percent Effective Shear Modulus / Percent Effective Shear Stress: scale not given: direction of the effect not stated beside the values; conditions: for Effective Shear Modulus / Effective Shear Stress / Maximum Torque to Failure / Maximum Torsional Rigidity / Percent Effective Shear Modulus / Percent Effective Shear Stress / Percent Maximum Torque to Failure / Percent maximum torsional rigidity: no carrier, 4 weeks post-fracture; for effective shear stress, times higher than control: four weeks post-fracture
Description: Zinc Chloride [(ZnCl2), Sigma Aldrich, St. Louis, MO] mixed with a buffer was injected into the intramedullary canal prior to fracture. The buffer consisted of sodium acetate, sodium chloride methyl hydroxybenzoate, and zinc chloride. Doses of 1.0 mg/kg and 3.0 mg/kg zinc chloride were tested and administered at a volume of 0.1mL.
Fractured and contralateral femora were resected at three and four weeks post-fracture. Femora were cleaned of soft tissue and the intramedullary rod was removed. Samples were wrapped in saline (0.9% NaCl) soaked gauze and stored at -20 °C. Prior to testing, all femora were removed from the freezer and allowed to thaw to room temperature for three to four hours. The proximal and distal ends of the fractured and contralateral femora were embedded in ¾ inch square nuts with Field's Metal, leaving an approximate gauge length of 18 mm (Figure 2). After measuring callus, gauge length and femur dimensions, torsional testing was conducted using a servohydraulics machine (MTS Systems Corp., Eden Prairie, MN) with a 20 Nmm reaction torque cell (Interface, Scottsdale, AZ) and tested to failure at a rate of 2.0 deg/sec. The maximum torque to failure and angle to failure were determined from the force to angular displacement data.
Maximum torque to failure and maximum torsional rigidity are considered extrinsic properties while shear modulus and maximum shear stress are considered intrinsic properties. […] Maximum torsional rigidity is a function of the maximum torque to failure, gauge length (distance of the exposed femur between the embedded proximal and distal end) and angular displacement. Maximum shear stress is a function of the maximum torque to failure, maximum radius within the mid-diaphyseal region and the polar moment of inertia. The polar moment of inertia was calculated by modeling the femur as a hollow ellipse.
In order to compare the biomechanical parameters between different treatment groups, the data was normalized by dividing each fractured femur value by its corresponding intact, contralateral femur value (Figure 2). Normalization was used to minimize biological variability due to differences in age and weight among rats.
Zinc chloride (ZnCl2), Sigma Aldrich, St. Louis, MO, mixed with sterile water at various doses with or without a calcium sulfate carrier, were injected into the intramedullary canal prior to fracture. Doses of ZnCl2 were not based on each animal's body weight, but on a lower theoretically tolerable dose for a 290-gram BB Wistar rat, which would not elicit heavy metal poisoning or behavioral changes. This weight is over 50 grams lower than the average weight of non-diabetic BB Wistar rats at an age of approximately 90 days (the age of investigation in this study).

femur fractures [2] = conditions: zinc chloride 3.0 mg/kg
Text: The fractured femora were resected at seven days post-fracture, decalcified, dehydrated, embedded in paraffin, and sectioned using standard histological techniques. Sections were stained with Masson's Trichrome (Accustain™ Trichrome Staining kit, Sigma Diagnostics, St. Louis, MO) for histological observation using an Olympus BH2-RFCA microscope (Olympus Optical Co., Ltd., Shinjuku-ku, Tokyo, Japan). Digital images were collected using a Nikon DXM1200F digital camera (Nikon, Tokyo, Japan). Cartilage, new bone, and total callus area were measured from the digital images using Image-Pro Plus software (version 5, Media Cybernetics, Inc., Silver Spring, MD). Total cartilage and new bone area were normalized to total callus area and expressed as the percent area. Two independent reviewers were used to minimize inconsistencies.
This includes dehydration, soaking in Xylenes, and finally pre-embedding in a layer of Polymethylmethacrylate (PMMA). After embedding in pure PMMA and allowed to solidify in a hot water bath, slides were sectioned from the PMMA blocks, polished, and stained with a combination of Stevenel's blue and Van Gieson picro-fuchsin (SVG). Histological images of fracture calluses were obtained using an Olympus SZX12 upright microscope (Olympus Optical Co, LTD, Japan) connected via a CCD camera (Optronics, Goleta, California) to a personal computer and analyzed with the Bioquant software package (Biometrics, Inc, Nashville, TN). Parameters that were compared include a) callus area, b) percent calcified tissue area, and c) percent cartilage area. Limitations of this procedure include production of slides with high thicknesses, due to the difficulties associated with sectioning PMMA. This limits the number of possible sections that may be cut for staining in addition to analysis of cellular morphology, due to overlapping layers of cells.

[3] = rat, in vivo
Description: Doses of ZnCl2 were not based on each animal's body weight, but on a lower theoretically tolerable dose for a 290-gram BB Wistar rat, which would not elicit heavy metal poisoning or behavioral changes. […] A 0.1 ml volume of the ZnCl2 solution was administered locally via a single injection into the marrow space for each dose examined.
However, animals amongst treatment groups were age and sex matched for each experiment.

femur fractures [4] = conditions: no carrier
Description: Under the same anesthesia as described above, the rats were positioned prone and lateral and anteroposterior (AP) radiographs of their femurs were obtained. […] Exposures were for 30 seconds at 55 kVp. Magnified radiographs were obtained of resected femurs. Qualitative analysis was performed on all radiographic sample at four weeks post-fracture. […] Treatment group averages were computed to estimate healing at 4 weeks post-fracture.

[5] = ZnCl2 0.1 mg/kg local, normalized to intact femur
[6] = ZnCl2 1.0 mg/kg local, normalized to intact femur
[7] = ZnCl2 3.0 mg/kg local, normalized to intact femur, 3 mg/kg
[8] = ZnCl2 3 mg/kg, four weeks, normalized to intact femur, 3 mg/kg
[9] = ZnCl2 6.0 mg/kg local, normalized to intact femur
[10] = ZnCl2 10.0 mg/kg local, normalized to intact femur

Compound: [Cl-].[Cl-].[Zn+2] [ZnCl2, Zinc Chloride]
- Effective Shear Modulus (femur fractures [1]; ZnCl2 0.1 mg/kg local): 1.7×10^3 ± 3.3×10^2 MPa
- Effective Shear Stress (femur fractures [1]; ZnCl2 0.1 mg/kg local): 61 ± 14 MPa
- Maximum Torque to Failure (femur fractures [1]; ZnCl2 0.1 mg/kg local): 252 ± 13 Nmm
- Maximum Torsional Rigidity (femur fractures [1]; ZnCl2 0.1 mg/kg local): 2.1×10^4 ± 4.2×10^3 Nmm^2/rad
- Percent Effective Shear Modulus (femur fractures [1]; [5]): 34 ± 4%
- Percent Effective Shear Stress (femur fractures [1]; [5]): 33 ± 14%
- Percent Maximum Torque to Failure (femur fractures [1]; [5]): 57 ± 12%
- Percent maximum torsional rigidity (femur fractures [1]; [5]): 87 ± 14%
- Effective Shear Modulus (femur fractures [1]; ZnCl2 1.0 mg/kg local): 9.7×10^2 ± 3.6×10^2 MPa
- Effective Shear Stress (femur fractures [1]; ZnCl2 1.0 mg/kg local): 44 ± 15 MPa
- Maximum Torque to Failure (femur fractures [1]; ZnCl2 1.0 mg/kg local): 281 ± 86 Nmm
- Maximum Torsional Rigidity (femur fractures [1]; ZnCl2 1.0 mg/kg local): 2.2×10^4 ± 2.7×10^3 Nmm^2/rad
- Percent Effective Shear Modulus (femur fractures [1]; [6]): 32 ± 15%
- Percent Effective Shear Stress (femur fractures [1]; [6]): 18 ± 8%
- Percent Maximum Torque to Failure (femur fractures [1]; [6]): 65 ± 29%
- Percent maximum torsional rigidity (femur fractures [1]; [6]): 55 ± 14%
- effective shear stress, times higher than control (femur fractures [1]; ZnCl2 1.0 mg/kg): 1.6 x
- Effective Shear Modulus (femur fractures [1]; ZnCl2 3.0 mg/kg local): 1.3×10^3 ± 6.4×10^2 MPa
- Effective Shear Stress (femur fractures [1]; ZnCl2 3.0 mg/kg local): 55 ± 21^∗ MPa
- Maximum Torque to Failure (femur fractures [1]; ZnCl2 3.0 mg/kg local): 369 ± 74 Nmm
- Maximum Torsional Rigidity (femur fractures [1]; ZnCl2 3.0 mg/kg local): 3.1×10^4 ± 1.1×10^4 Nmm^2/rad
- Percent Effective Shear Stress (femur fractures [1]; ZnCl2 3.0 mg/kg local, normalized to intact femur): 27 ± 17%
- Percent Effective Shear Modulus (femur fractures [1]; [7]): 39.0% and 36 ± 10^∗ Percent
- Percent Maximum Torque to Failure (femur fractures [1]; [7]): 82.0% and 82 ± 25^∗ Percent
- Percent maximum torsional rigidity (femur fractures [1]; [7]): 97.0% and 97 ± 55^∗ Percent
- effective shear stress, times higher than control (femur fractures [1]; ZnCl2 3.0 mg/kg): 2.2 x
- percent effective shear modulus, times higher than control group (femur fractures [1]; [8]): 9.0 x and 8.0 x
- percent maximum torque to failure, times higher than control group (femur fractures [1]; [8]): 2.04 x and 2.0 x
- percent torsional rigidity, times higher than control group (femur fractures [1]; [8]): 3.85 x and 3.8 x
- Effective Shear Modulus (femur fractures [1]; ZnCl2 6.0 mg/kg local): 1.1×10^3 ± 7.5×10^2 MPa
- Effective Shear Stress (femur fractures [1]; ZnCl2 6.0 mg/kg local): 32 ± 25^∗ MPa
- Maximum Torque to Failure (femur fractures [1]; ZnCl2 6.0 mg/kg local): 276 ± 190 Nmm
- Maximum Torsional Rigidity (femur fractures [1]; ZnCl2 6.0 mg/kg local): 2.9×10^4 ± 1.6×10^4 Nmm^2/rad
- Percent Effective Shear Modulus (femur fractures [1]; [9]): 18 ± 12%
- Percent Effective Shear Stress (femur fractures [1]; [9]): 15 ± 10%
- Percent Maximum Torque to Failure (femur fractures [1]; [9]): 38 ± 20%
- Percent maximum torsional rigidity (femur fractures [1]; [9]): 62 ± 35%
- Percent shear modulus, times greater than untreated saline group (femur fractures [1]; ZnCl2 10.0 mg/kg (high dose), four weeks, normalized to intact femur): 8.8 times
- Effective Shear Modulus (femur fractures [1]; ZnCl2 10.0 mg/kg local): 3.0×10^3 ± 1.9×10^3∗ MPa
- Effective Shear Stress (femur fractures [1]; ZnCl2 10.0 mg/kg local): 62 ± 30 MPa
- Maximum Torque to Failure (femur fractures [1]; ZnCl2 10.0 mg/kg local): 254 ± 36 Nmm
- Maximum Torsional Rigidity (femur fractures [1]; ZnCl2 10.0 mg/kg local): 3.6×10^4 ± 2.5×10^4 Nmm^2/rad
- Percent Effective Shear Stress (femur fractures [1]; [10]): 27 ±11%
- Percent Maximum Torque to Failure (femur fractures [1]; [10]): 41 ± 8%
- Percent maximum torsional rigidity (femur fractures [1]; [10]): 73 ± 44%
- Percent Effective Shear Modulus (femur fractures [1]; ZnCl2 10.0 mg/kg local, normalized to intact femur, 10 mg/kg): 36.0% and 39 ± 23^∗ Percent
- time in which fracture healing resolved (femur fractures [1]; ZnCl2 applied directly to the fracture site, instead of average eight to ten weeks in standard rat femur fracture model): four to five weeks
- % Bone (femur fractures [2]; 7 Day): 18.92 ± 5.97 ^∗ %
- % Cartilage (femur fractures [2]; 7 Day): 4.64 ± 3.41%
- % Bone (femur fractures [2]; 10 Day): 21.31 ± 5.40%
- % Cartilage (femur fractures [2]; 10 Day): 12.79 ± 3.02%
- % Bone (femur fractures [2]; 21 Day): 24.47 ± 3.53%
- % Cartilage (femur fractures [2]; 21 Day): 11.57 ± 5.53%
- % Weight gain ([3]; 0.1 mg/kg): 15.3±11.5%
- Blood Glucose 12 Hours Post-Surgery ([3]; 0.1 mg/kg): 87.0±7.1 ^a mg/dl
- % Weight gain ([3]; 1 mg/kg): 11.0±9.4%
- Blood Glucose 12 Hours Post-Surgery ([3]; 1 mg/kg): 99.3±3.1 ^b mg/dl
- % Weight gain ([3]; 3 mg/kg): 6.9±11.7%
- Blood Glucose 12 Hours Post-Surgery ([3]; 3 mg/kg): 105.0±4.4 ^b mg/dl
- % Weight gain ([3]; 6 mg/kg): 4.6±2.3%
- Blood Glucose 12 Hours Post-Surgery ([3]; 6 mg/kg): 88.0±4.3 ^a mg/dl
- % Weight gain ([3]; 10 mg/kg): 4.2±2.0%
- Blood Glucose 12 Hours Post-Surgery ([3]; 10 mg/kg): 87. 7±8. 5 ^a mg/dl
- Radiographic scoring, 4 Weeks Post-Fracture (# of cortices bridged) (femur fractures [4]; ZnCl2 1.0 mg/kg local): 3.0 ± 0.6 (n=3)
- Radiographic scoring, 4 Weeks Post-Fracture (# of cortices bridged) (femur fractures [4]; ZnCl2 3.0 mg/kg local): 3.3 ± 0.6^∗ (n=3)
